The values that follow come from ChEMBL document CHEMBL1128635, “Structure-activity studies of the natural product substance P antagonist win 64821” (Bioorg Med Chem Lett, 1995).

Bounds are passed on as bounds.

The IC50 is the concentration that gives 50% inhibition.

The target of the experiment is Substance-P receptor (Homo sapiens, UniProt P25103). Description: Antagonistic activity against Tachykinin receptor 1. The class given is functional.
Sequence of Substance-P receptor (P25103 whole entry): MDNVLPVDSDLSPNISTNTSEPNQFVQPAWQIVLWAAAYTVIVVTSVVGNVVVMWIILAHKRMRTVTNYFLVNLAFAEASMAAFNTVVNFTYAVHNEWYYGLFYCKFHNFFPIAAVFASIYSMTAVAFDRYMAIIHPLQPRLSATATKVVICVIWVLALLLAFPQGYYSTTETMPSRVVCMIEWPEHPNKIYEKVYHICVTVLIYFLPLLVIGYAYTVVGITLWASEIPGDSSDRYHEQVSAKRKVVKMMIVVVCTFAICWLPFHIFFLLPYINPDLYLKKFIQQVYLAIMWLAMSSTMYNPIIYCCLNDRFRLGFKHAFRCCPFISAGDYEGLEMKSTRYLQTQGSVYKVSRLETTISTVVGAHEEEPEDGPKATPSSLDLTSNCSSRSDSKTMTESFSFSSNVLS
The compound `Cc1cccc2c1C1(C34C[C@H]5C(=O)N[C@@H](Cc6ccccc6)C(=O)N5[C@H]3Nc3ccccc34)C[C@H]3C(=O)N[C@@H](Cc4ccccc4)C(=O)N3[C@H]1N2` (stereo partly drawn) came in with an IC50 of 0.44 µM. The result for `Cc1cccc2c1C1(C34C[C@H]5C(=O)N[C@@H](Cc6ccccc6)C(=O)N5[C@H]3Nc3cccc(C)c34)C[C@H]3C(=O)N[C@@H](Cc4ccccc4)C(=O)N3[C@H]1N2` (stereo partly drawn) reads 5.7 µM; that for `O=C1N[C@@H](Cc2ccccc2)C(=O)N2[C@H]3Nc4ccccc4[C@@]3(O)C[C@@H]12`, over 100 µM. The result for `COc1ccc(N)cc1C[C@]12C[C@H]3C(=O)N[C@@H](Cc4ccccc4)C(=O)N3[C@H]1Nc1ccccc12` reads 26 µM. The result for `COc1ccc([N+](=O)[O-])cc1C[C@]12C[C@H]3C(=O)N[C@@H](Cc4ccccc4)C(=O)N3[C@H]1Nc1ccccc12` reads 54 µM; that for `O=C1N[C@@H](Cc2ccccc2)C(=O)N2[C@H]1C[C@@]1(O)c3ccccc3N[C@@H]21`, over 100 µM. On to `O=C1N[C@@H](Cc2ccccc2)C(=O)N2[C@H]3Nc4ccccc4[C@@]3(Cc3cc([N+](=O)[O-])ccc3O)C[C@@H]12`, for which the IC50 was 48 µM. Under `O=C1N[C@@H](Cc2ccccc2)C(=O)N2[C@H]1C[C@@]1(Cc3cc([N+](=O)[O-])ccc3O)c3ccccc3N[C@@H]21` stands 98 µM; under `COc1ccc([N+](=O)[O-])cc1C[C@@]12C[C@H]3C(=O)N[C@@H](Cc4ccccc4)C(=O)N3[C@@H]1Nc1ccccc12`, 88 µM; under `O=C1N[C@@H](Cc2ccccc2)C(=O)N2[C@H]3Nc4ccccc4C3(C34C[C@H]5C(=O)N[C@@H](Cc6ccccc6)C(=O)N5[C@H]3Nc3ccccc34)C[C@@H]12` (stereo partly drawn), 0.24 µM. On to `O=C1[C@@H]2C[C@]3(Cc4cc([N+](=O)[O-])ccc4O)c4ccccc4N[C@@H]3N2C(=O)[C@H](Cc2ccccc2)N1Cc1cc([N+](=O)[O-])ccc1O`, for which the IC50 is over 100 µM.

Consider `COc1ccc(N)cc1C[C@@]12C[C@H]3C(=O)N[C@@H](Cc4ccccc4)C(=O)N3[C@@H]1Nc1ccccc12`, for which the 50% inhibitory concentration (IC50) amounted to 38 µM. Under `O=C1[C@@H]2C[C@@]3(Cc4cc([N+](=O)[O-])ccc4O)c4ccccc4N[C@H]3N2C(=O)[C@H](Cc2ccccc2)N1Cc1cc([N+](=O)[O-])ccc1O` stands over 100 µM.
